Source: publication PMC7488486 (Acta Pharmaceutica Sinica. B, 2020)

Key:
[1] = target: dopamine D2 receptors (Homo sapiens, UniProt P14416); assay: [35S]GTPγS binding assay in transfected cells, dopamine D2 receptor; format: biochemical
[2] = test system: adult male Wistar rats; assay: Tail-flick test, acute pain model, single administration; format: in vivo; conditions: i.t., 10 nmol/rat, mean ± SEM
[3] = test system: adult male Wistar rats; assay: Rotarod, evaluation of motor impairment; format: in vivo; conditions: 10 nmol/rat i.t., 30 min after administration, cut-off 300 s, n = 6
[4] = test system: adult male Wistar rats; assay: Scratching and grooming behaviour; format: in vivo; conditions: 10 nmol/rat i.t.
[5] = test system: adult male Wistar rats

Sequence of dopamine D2 receptors (P14416 whole entry): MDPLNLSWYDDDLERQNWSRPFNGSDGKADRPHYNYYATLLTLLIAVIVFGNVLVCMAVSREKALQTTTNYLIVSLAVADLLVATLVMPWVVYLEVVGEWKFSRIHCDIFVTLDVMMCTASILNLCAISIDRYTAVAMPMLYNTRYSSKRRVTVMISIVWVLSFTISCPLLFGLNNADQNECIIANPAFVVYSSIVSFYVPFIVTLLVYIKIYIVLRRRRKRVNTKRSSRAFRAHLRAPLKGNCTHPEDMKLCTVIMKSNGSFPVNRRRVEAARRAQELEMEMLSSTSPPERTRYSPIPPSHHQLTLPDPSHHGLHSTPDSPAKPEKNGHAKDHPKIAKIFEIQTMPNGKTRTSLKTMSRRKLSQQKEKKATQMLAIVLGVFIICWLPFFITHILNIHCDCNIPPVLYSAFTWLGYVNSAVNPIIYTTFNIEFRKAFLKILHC

| SMILES | Influence of domperidone on the [35S]GTPγS response ([1]; dopamine receptor antagonist domperidone present, unpublished data) | Emax ([1]; read-out: Emax, G protein activation at dopamine D2 receptor) [%] | MPE (%), tail-flick test ([2]; 15 min post-administration) [%] | MPE (%), tail-flick test ([2]; 30 min post-injection) [%] | Latency to fall, Rotarod [3] [s] | Additional behaviours (wet-dog shakes, teeth chattering) [4] | Scratching response ([4]; day 9, first 30 min post-injection) | Increase in the acute ED50 values after repeated treatment ([5]; i.t., tail-flick test) [fold] | ED50 value (nmol, i.t.), Day 1 ([5]; rat tail-flick, 30 min post-injection, Day 1, mean (CI 95%)) | ED50 value (nmol, i.t.), Day 3 ([5]; rat tail-flick, repeated daily treatment, Day 3, mean (CI 95%)) |
| --- | --- | --- | --- | --- | --- | --- | --- | --- | --- | --- |
| NCCc1ccc(O)c(O)c1 [Dopamine] | considerably reduced in the presence of domperidone | 141 |  |  |  |  |  |  |  |  |
| CN1CC[C@]23c4c5ccc(O)c4O[C@H]2[C@@H](O)C=C[C@H]3[C@H]1C5 [Morphine] |  |  | 84.50 ± 3.84 | 86.23 ± 4.76 | 222.33 ± 8.44 | wet-dog shakes and teeth chattering | strong scratch reflex in rats that weakened over time | 3.2 | 2.82 (2.33–3.41) nmol | 9.03 (7.03–11.61) nmol |
